Source: PubChem BioAssay (NCI)
Several values for one entry are separate records, joined by “and”; a condition that tells them apart may be missing. Equal entries are not always repeated.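 Step 1: Grow cells in 96-well plates. Step 2: Expose to compound for 48 hours at 5 concentrations. Step 3: Interpolate endpoints linearly; if unreached, use highest concentration. GI50 is the concentration that inhibits growth by half. TGI is the concentration that stops growth completely.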

What was measured:
Experiment in all cases: NCI tumour cell line growth inhibition, 48 h
A498 renal = system: A498 renal
A549 NSCLC = system: A549 NSCLC
CAKI-1 renal = system: CAKI-1 renal
CCRF-CEM leukemia = system: CCRF-CEM leukemia
COLO 205 colon = system: COLO 205 colon
DLD-1 colon = system: DLD-1 colon
DMS 114 small cell lung = system: DMS 114 small cell lung
DMS 273 small cell lung = system: DMS 273 small cell lung
EKVX NSCLC = system: EKVX NSCLC
HCC-2998 colon = system: HCC-2998 colon
HCT-116 colon = system: HCT-116 colon
HCT-15 colon = system: HCT-15 colon
HL-60(TB) leukemia = system: HL-60(TB) leukemia
HOP-18 NSCLC = system: HOP-18 NSCLC
HOP-62 NSCLC = system: HOP-62 NSCLC
HOP-92 NSCLC = system: HOP-92 NSCLC
HT29 colon = system: HT29 colon
IGROV1 ovarian = system: IGROV1 ovarian
K-562 leukemia = system: K-562 leukemia
KM12 colon = system: KM12 colon
KM20L2 colon = system: KM20L2 colon
LOX IMVI melanoma = system: LOX IMVI melanoma
M19-MEL melanoma = system: M19-MEL melanoma
MALME-3M melanoma = system: MALME-3M melanoma
MCF7 breast = system: MCF7 breast
MOLT-4 leukemia = system: MOLT-4 leukemia
NCI-H226 lung = system: NCI-H226 lung
NCI-H23 lung = system: NCI-H23 lung
NCI-H460 lung = system: NCI-H460 lung
NCI-H522 lung = system: NCI-H522 lung
NCI/ADR-RES ovarian = system: NCI/ADR-RES ovarian
OVCAR-3 ovarian = system: OVCAR-3 ovarian
OVCAR-4 ovarian = system: OVCAR-4 ovarian
OVCAR-5 ovarian = system: OVCAR-5 ovarian
OVCAR-8 ovarian = system: OVCAR-8 ovarian
P388 leukemia = system: P388 leukemia
P388/ADR leukemia = system: P388/ADR leukemia
RPMI-8226 leukemia = system: RPMI-8226 leukemia
RXF 393 renal = system: RXF 393 renal
SF-268 CNS = system: SF-268 CNS
SF-295 CNS = system: SF-295 CNS
SF-539 CNS = system: SF-539 CNS
SK-MEL-2 melanoma = system: SK-MEL-2 melanoma
SK-MEL-28 melanoma = system: SK-MEL-28 melanoma
SK-MEL-5 melanoma = system: SK-MEL-5 melanoma
SK-OV-3 ovarian = system: SK-OV-3 ovarian
SN12C renal = system: SN12C renal
SN12K1 renal = system: SN12K1 renal
SNB-19 CNS = system: SNB-19 CNS
SNB-75 CNS = system: SNB-75 CNS
SNB-78 CNS = system: SNB-78 CNS
SW-620 colon = system: SW-620 colon
U251 CNS = system: U251 CNS
UACC-257 melanoma = system: UACC-257 melanoma
UACC-62 melanoma = system: UACC-62 melanoma
UO-31 renal = system: UO-31 renal
XF 498 CNS = system: XF 498 CNS

Structure (SMILES): CCCCCCCCCCSCC(CO)NC(=O)/C=C/c1c(C)[nH]c(=O)[nH]c1=O (stereo unspecified)
- GI50 (A498 renal): 1.98 µM and 4.94 µM
- TGI (A498 renal): > 50 µM
- GI50 (A549 NSCLC): > 44.4 µM
- TGI (A549 NSCLC): > 50 µM
- GI50 (CAKI-1 renal): 1.01 µM and 3.68 µM
- TGI (CAKI-1 renal): 8.25 µM and > 50 µM
- TGI (CCRF-CEM leukemia): 3.97 µM and 2.97 µM
- TGI (COLO 205 colon): 8.39 µM and 17.6 µM
- TGI (DLD-1 colon): > 50 µM
- TGI (DMS 114 small cell lung): 5.93 µM and 4.33 µM
- GI50 (DMS 273 small cell lung): 1.97 µM and 4.58 µM
- TGI (DMS 273 small cell lung): > 50 µM
- TGI (EKVX NSCLC): > 42.3 µM
- TGI (HCC-2998 colon): 7.38 µM and 11.5 µM
- TGI (HCT-116 colon): > 50 µM
- GI50 (HCT-15 colon): 5.55 µM and 14.7 µM
- TGI (HCT-15 colon): > 50 µM
- TGI (HL-60(TB) leukemia): > 35.2 µM and 6.35 µM
- GI50 (HOP-18 NSCLC): 2.91 µM and > 26.8 µM
- TGI (HOP-18 NSCLC): > 50 µM
- TGI (HOP-62 NSCLC): > 31.1 µM and 31.2 µM
- TGI (HOP-92 NSCLC): 3.72 µM and > 20.3 µM
- TGI (HT29 colon): > 50 µM
- TGI (IGROV1 ovarian): > 50 µM
- TGI (K-562 leukemia): > 50 µM
- TGI (KM12 colon): > 50 µM
- TGI (KM20L2 colon): > 50 µM
- TGI (LOX IMVI melanoma): 23.8 µM and > 50 µM
- TGI (M19-MEL melanoma): 14.8 µM and > 39.5 µM
- TGI (MALME-3M melanoma): 6.28 µM and 2.78 µM
- TGI (MCF7 breast): > 19.3 µM and 17.4 µM
- TGI (MOLT-4 leukemia): 16.8 µM and 9.45 µM
- GI50 (NCI-H226 lung): 2.18 µM
- TGI (NCI-H226 lung): > 50 µM and 12.4 µM
- GI50 (NCI-H23 lung): 1.76 µM and 5.54 µM
- TGI (NCI-H23 lung): 14.3 µM and > 50 µM
- TGI (NCI-H460 lung): 18.2 µM and 49.5 µM
- TGI (NCI-H522 lung): 1.68 µM and 6.76 µM
- TGI (NCI/ADR-RES ovarian): > 50 µM
- TGI (OVCAR-3 ovarian): 3.05 µM and 9.12 µM
- GI50 (OVCAR-4 ovarian): 0.912 µM and 0.192 µM
- TGI (OVCAR-4 ovarian): 4.01 µM
- TGI (OVCAR-5 ovarian): > 50 µM
- TGI (OVCAR-8 ovarian): 18.6 µM and 10.4 µM
- TGI (P388 leukemia): 7.15 µM and 6.31 µM
- TGI (P388/ADR leukemia): > 50 µM
- GI50 (RPMI-8226 leukemia): 19.7 µM
- TGI (RPMI-8226 leukemia): > 50 µM
- TGI (RXF 393 renal): > 25.7 µM
- GI50 (SF-268 CNS): 0.895 µM
- TGI (SF-268 CNS): 10.2 µM and > 21.4 µM
- GI50 (SF-295 CNS): 14.6 µM
- TGI (SF-295 CNS): > 50 µM
- TGI (SF-539 CNS): > 36.5 µM
- TGI (SK-MEL-2 melanoma): 14.3 µM and 5.19 µM
- TGI (SK-MEL-28 melanoma): > 50 µM
- TGI (SK-MEL-5 melanoma): 8.06 µM and 13.1 µM
- GI50 (SK-OV-3 ovarian): 1.82 µM and 7.04 µM
- TGI (SK-OV-3 ovarian): > 50 µM
- TGI (SN12C renal): 17.7 µM and > 32.8 µM
- TGI (SN12K1 renal): > 35.6 µM and 19.9 µM
- TGI (SNB-19 CNS): 13.7 µM and 12.4 µM
- TGI (SNB-75 CNS): 12.9 µM and 18.1 µM
- TGI (SNB-78 CNS): > 31.6 µM
- TGI (SW-620 colon): > 50 µM
- TGI (U251 CNS): 3.7 µM and 10.7 µM
- GI50 (UACC-257 melanoma): 1.77 µM and 3.82 µM
- TGI (UACC-257 melanoma): > 50 µM
- TGI (UACC-62 melanoma): 7.71 µM and 9.48 µM
- TGI (UO-31 renal): > 50 µM
- TGI (XF 498 CNS): 2.19 µM and 3.61 µM
